Here are results for 22 molecules from patent US20110158924A1, “PHOTO-PROTECTIVE DERMATOLOGICAL FORMULATIONS” (DermaPlus, Inc., priority 2007, published 2011).

Like-named read-outs stand apart in the source and are kept apart here.

For one series, the target named is P5CR (Homo sapiens, UniProt Q96C36). Particulars: read-out: Km for P5CR activity; extracts of HEK 293 cells overexpressing P5CR, substrate P5C. How it is done: (§1) P5CS activity was measured in a reaction mixture of 50 mM Tris-HCl (pH 7.0), 0-50 mM glutamate, […], 10 mM ATP, and 0.2 mM NADPH and by monitoring the oxidation of NADPH at 340 nm. P5CR activity in the cell lysate was also determined by monitoring the oxidation of NADPH at 340 nm as described in Merrill, M. J., Yeh, G. C., and Phang, J. M. (1989) J. Biol. Chem. 264, 9352-9358, which reference is incorporated herein by reference in its entirety. Background rates for each of the above assays were determined from assays using lysates of HEK 293 cells transfected with the pcDNA3.1 vector alone. Km values for each enzyme activity were estimated by varying the concentration of the substrates and non-linear regression analysis of the initial velocity vs substrate concentration.

The subject of series [1] is HEK 293 cells. Description: Cell survival of HEK 293 cells after H2O2 stress treatment (MTT assay). Type of series: cell-based, human. Particulars: for viability at 5000 µM: Homo sapiens, read-out: Cell Survival (%); for protection of cell survival against H2O2 exposure (in words): 0.5 mM H2O2, 3 h. How it is done: For stress treatments, HEK 293 cells were grown to about 80% confluence. […] For testing the protective ability of other amino acids, cells were treated for 3 h with 0.5 mM H2O2 in the absence and presence of each amino acid (5 mM). Cells overexpressing PRODH, P5CS, and P5CR were incubated with H2O2 (0.5 mM) for 3 h at 37° C. after 24 h of transfection. Mild oxidative stress treatment was performed by treating HEK 293 cells with 20 μM H2O2 for 0-24 h at 37° C. […] Percent cell survival was estimated by counting live and dead cells using the 3-(4,5-dimethylthiazol-2-yl)-2,5-diphenyltetrazolium bromide (MTT) assay according to the recommendations of the manufacturer (Promega).
A general note: Formazan colour is commonly taken as a measure of viable cells.

The target of a further series is P5CS (Homo sapiens, UniProt P54886). As to conditions: read-out: Km for P5CS activity; extracts of HEK 293 cells overexpressing P5CS, substrate glutamate. The procedure:
as §1

Series [2] concerns HEK 293 cells. As to conditions: H2O2 1 mM for 3 and 6 h, 5 mM proline. How it is done: The cell pellets were resuspended in 0.4 ml of 100 mM Tris-HCl (pH 8.5) containing 0.2% SDS, 0.2 mg/ml proteinase K and 5 mM EDTA. The cells were then incubated at 37° C. for 16 h. NaCl was next added to the cell suspension at a final concentration of 1.5 M and the nuclear debris was removed by centrifugation at room temperature. The nucleic acids in the supernatant were then precipitated using established protocols. DNA samples were analyzed by non-denaturing agarose gel electrophoresis (1.5%) and visualized by ethidium bromide staining.

The subject of series [3] is HEK 293 cells. As to conditions: H2O2 1 mM, proline 5 mM; H2O2 alone 55%, no stress 6%.
Description: Intracellular ROS levels in HEK 293 cells were evaluated before and after H2O2 treatment by incubating PBS washed cells for 10 min with dichlorodihydrofluorescein diacetate (DCHF-DA) (20 μM) (Molecular Probes).
Quantitative ROS measurements were performed using flow cytometry. After oxidative stress treatment as described above, cells (5×10^5) were washed with PBS and incubated with DCHF-DA (0.1 mM) for 15 min in the dark at room temperature. Cells were then washed twice with PBS to remove excess DCHF-DA and resuspended in PBS containing 10 mM EDTA. The cells were then analyzed using FACScan flow cytometry (Becton-Dickinson, San Jose, Calif.). The mean fluorescence channel of each sample was calculated using FACS-equipped […] ® software and is reported as the percent fluorescence observed in the live cell population. In each assay, matching cells not treated with DCHF-DA served as a control.
Substrate in series [4]: O=C(O)[C@@H]1CCCN1
Description: cells, lysate or membranes named. Particulars: other: extracts of HEK 293 cells overexpressing PRODH, substrate proline; pH 7.0.

[5] abbreviates: HEK293, amino acid supplement 5 mM, 0.5 mM H2O2 for 3 h at 37° C., MTT, no supplement 39, control without H2O2 97.
[6] abbreviates: HEK293, 3 h, amino acid supplement 5 mM, 0.5 mM H2O2 for 3 h at 37° C., MTT, no supplement 39, control without H2O2 97.

Sequence of P5CR (Q96C36 whole entry): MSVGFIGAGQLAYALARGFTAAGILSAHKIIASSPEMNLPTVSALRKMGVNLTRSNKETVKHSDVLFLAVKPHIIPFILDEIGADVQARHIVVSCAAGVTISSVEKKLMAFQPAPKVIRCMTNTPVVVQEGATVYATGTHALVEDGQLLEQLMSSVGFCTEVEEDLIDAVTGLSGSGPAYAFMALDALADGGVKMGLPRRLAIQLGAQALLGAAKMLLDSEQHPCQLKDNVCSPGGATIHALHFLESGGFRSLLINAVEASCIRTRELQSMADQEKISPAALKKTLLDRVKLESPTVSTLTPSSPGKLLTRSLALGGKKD
Sequence of P5CS (P54886 1-793 isoform P54886-2): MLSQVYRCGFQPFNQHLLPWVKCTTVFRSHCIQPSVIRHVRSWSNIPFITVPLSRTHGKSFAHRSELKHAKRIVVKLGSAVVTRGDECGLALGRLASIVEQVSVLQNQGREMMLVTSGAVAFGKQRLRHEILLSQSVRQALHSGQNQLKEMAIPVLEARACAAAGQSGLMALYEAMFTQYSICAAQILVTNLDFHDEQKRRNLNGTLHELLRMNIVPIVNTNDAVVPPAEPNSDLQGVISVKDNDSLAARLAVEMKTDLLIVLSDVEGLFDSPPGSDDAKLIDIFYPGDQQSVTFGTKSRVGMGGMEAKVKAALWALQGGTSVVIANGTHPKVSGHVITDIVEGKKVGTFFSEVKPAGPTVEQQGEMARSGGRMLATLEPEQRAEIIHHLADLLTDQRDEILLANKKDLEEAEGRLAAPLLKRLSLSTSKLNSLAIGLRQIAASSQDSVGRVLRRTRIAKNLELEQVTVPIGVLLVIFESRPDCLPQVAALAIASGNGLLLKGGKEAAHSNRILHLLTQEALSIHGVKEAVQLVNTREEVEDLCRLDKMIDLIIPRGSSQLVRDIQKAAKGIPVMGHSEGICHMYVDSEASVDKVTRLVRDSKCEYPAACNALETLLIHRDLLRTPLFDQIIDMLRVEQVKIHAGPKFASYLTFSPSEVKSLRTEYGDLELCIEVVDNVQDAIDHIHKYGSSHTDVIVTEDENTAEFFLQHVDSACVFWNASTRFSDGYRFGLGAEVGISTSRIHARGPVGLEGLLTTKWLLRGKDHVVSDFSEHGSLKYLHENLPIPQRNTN

Broadly, the Km is the concentration of substrate that gives half-maximal velocity. As to `O=C(O)C1CCC=N1` (stereo not drawn) [P5C], the Km at P5CR worked out at 15 mM.
As to `C[C@H](N)C(=O)O` [alanine, reference compound], the viability at 5000 µM with HEK 293 cells [1] (setting [5]) came out at 48%.
In the case of `N=C(N)NCCC[C@H](N)C(=O)O` [arginine, reference compound], the viability at 5000 µM in the series with HEK 293 cells [1] (HEK293, 3 h) stood at 50%.
For `NC(=O)C[C@H](N)C(=O)O` [asparagine, reference compound], the viability at 5000 µM in the series with HEK 293 cells [1] (setting [5]) was 48%.
Still for that read-out and setting: next, `N[C@@H](CC(=O)O)C(=O)O` [aspartate, reference compound]: 35%.
For `N[C@@H](CS)C(=O)O` [cysteine], the viability at 5000 µM in the series with HEK 293 cells [1] (HEK293, 3 h) amounted to 68%. Further, in the series with HEK 293 cells [1] (amino acid supplement 5 mM), the “protection of cell survival against H2O2 exposure (in words)” value (“protection of cell survival” for short) is reported as “increase cell survival to almost the same level as proline”.
With `N[C@@H](CCC(=O)O)C(=O)O` [glutamate, reference compound], the “Cell Survival (%)” value with HEK 293 cells [1] (amino acid supplement 5 mM, 0.5 mM H2O2 for 3 h at 37° C., MTT, no supplement 39, control without H2O2 97) amounted to 35%. The Km at P5CS was around 20 mM.
Take `NC(=O)CC[C@H](N)C(=O)O` [glutamine, reference compound]: in the series with HEK 293 cells [1] (setting [5]), the viability at 5000 µM was 49%.
As to `NCC(=O)O` [glycine, reference compound], in the series on HEK 293 cells [1] (setting [6]), the viability at 5000 µM was 33%.
Regarding `N[C@@H](Cc1c[nH]cn1)C(=O)O` [histidine], the viability at 5000 µM in the series with HEK 293 cells [1] (setting [5]) turned out to be 58%. Further, in the series with HEK 293 cells [1] (amino acid supplement 5 mM), the “protection of cell survival” value is “protection against H2O2 exposure”.
On to `CC[C@H](C)[C@H](N)C(=O)O` [isoleucine, reference compound], for which, in the series with HEK 293 cells [1] (setting [5]), the viability at 5000 µM turned out to be 42%.
Still for that read-out and setting: the same measure for `CC(C)C[C@H](N)C(=O)O` [leucine, reference compound]: 43%.
With `NCCCC[C@H](N)C(=O)O` [lysine], the viability at 5000 µM with HEK 293 cells [1] (HEK293, 3 h) turned out to be 54%.
Turning to `CSCC[C@H](N)C(=O)O` [methionine], in the series on HEK 293 cells [1] (setting [6]), the viability at 5000 µM was 57%. The “protection of cell survival” value with HEK 293 cells [1] (amino acid supplement 5 mM) was “protection against H2O2 exposure”.
As for `N[C@@H](Cc1ccccc1)C(=O)O` [phenylalanine], the viability at 5000 µM in the series on HEK 293 cells [1] (setting [5]) stood at 51%.
In the case of `O=C(O)[C@@H]1CCCN1` [proline], the viability at 5000 µM in the series on HEK 293 cells [1] (setting [6]) was around 77%. In addition, the “DNA laddering induced by H2O2” value in the series on HEK 293 cells [2] was “lack of DNA laddering”. The “cell fluorescence levels (fluorescent positives, indicative of ROS)” value with HEK 293 cells [3] amounted to 10%.
`N[C@@H](CO)C(=O)O` [serine]: the viability at 5000 µM with HEK 293 cells [1] (setting [5]) worked out at 58%.
Take `C[C@@H](O)[C@H](N)C(=O)O` [threonine]: the viability at 5000 µM with HEK 293 cells [1] (setting [5]) stood at 59%. For the same molecule, the “protection of cell survival” value in the series on HEK 293 cells [1] (amino acid supplement 5 mM) was “protection against H2O2 exposure”.
With `N[C@@H](Cc1c[nH]c2ccccc12)C(=O)O` [tryptophan], the viability at 5000 µM with HEK 293 cells [1] (HEK293, 3 h) came to 66%. Further, in the series with HEK 293 cells [1] (amino acid supplement 5 mM), the “protection of cell survival” value is “increase cell survival to almost the same level as proline”.
`N[C@@H](Cc1ccc(O)cc1)C(=O)O` [tyrosine, reference compound]: the viability at 5000 µM with HEK 293 cells [1] (setting [5]) amounted to 41%.
Same read-out and setting: next, `CC(C)[C@H](N)C(=O)O` [valine, reference compound]: 44%.

B1: PRODH (Homo sapiens) (protein)
chain: MALRRALPALRPCIPRFVPLSTAPASREQPAAGPAAVPGGGSATAVRPPVPAVDFGNAQEAYRSRRTWELARSLLVLRLCAWPALLARHEQLLYVSRKLLGQRLFNKLMKMTFYGHFVAGEDQESIQPLLRHYRAFGVSAILDYGVEEDLSPEEAEHKEMESCTSAAERDGSGTNKRDKQYQAHWAFGDRRNGVISARTYFYANEAKCDSHMETFLRCIEASGRVSDDGFIAIKLTALGRPQFLLQFSEVLAKWRCFFHQMAVEQGQAGLAAMDTKLEVAVLQESVAKLGIASRAEIEDWFTAETLGVSGTMDLLDWSSLIDSRTKLSKHLVVPNAQTGQLEPLLSRFTEEEELQMTRMLQRMDVLAKKATEMGVRLMVDAEQTYFQPAISRLTLEMQRKFNVEKPLIFNTYQCYLKDAYDNVTLDVELARREGWCFGAKLVRGAYLAQERARAAEIGYEDPINPTYEATNAMYHRCLDYVLEELKHNAKAKVMVASHNEDTVRFALRRMEELGLHPADHRVYFGQLLGMCDQISFPLGQAGYPVYKYVPYGPVMEVLPYLSRRALENSSLMKGTHRERQLLWLELLRRLRTGNLFHRPA
Consider B1, for which, in series [4], the Km came to 14 ± 0.5 mM.
